Source: US10240255B2 (priority 2007, dated 2019)

Key:
[1] = test system: BioMAP® systems (primary human cells); type: cell-based
[2] = test system: endothelial cells and PBMC

CO/C(=C/C(N)=O)[C@H](C)[C@H](/C=C/c1csc(-c2csc([C@@H](C)/C=C/C=C/C(C)C)n2)n1)OC [Myxothiazol]
IL1 level [1]: upregulation
MCP1 level [1]: inhibition
T cell activation [1]: inhibition
VCAM level [1]: upregulation
proliferation [1]: inhibition

COC[C@H]1OC(=O)c2coc3c2[C@@]1(C)C1=C(C3=O)[C@@H]2CCC(=O)[C@@]2(C)C[C@H]1OC(C)=O [Wortmannin]
cytotoxicity [2]: not cytotoxic

C=C(CC)C(=O)c1ccc(OCC(=O)O)c(Cl)c1Cl [ethacrynic acid]
E-selectin level ([2]; 10 μM): inhibition
HLA-DR level ([2]; 10 μM): inhibition
PBMC proliferation ([2]; 10 μM): inhibition
T cell activation ([2]; 10 μM): inhibition
VCAM level ([2]; 10 μM): inhibition
monocyte activation ([2]; 10 μM): inhibition
